Measurements taken from PMC11239005, “Preclinical studies of RA475, a guanidine-substituted spirocyclic candidate RPN13/ADRM1 inhibitor for treatment of ovarian cancer” (PLOS ONE, 2024).
Entries after “also recorded” stand apart in the source; their conditions may differ.

Tests used:
TSH1 = assay: MTT cytotoxicity assay, TSH1; assay type: cell-based; conditions: TSH1, 72 h
Method: (§1) All cell lines were obtained from the American Type Culture Collection (ATCC) and cultured in the specified medium supplemented with 10% fetal bovine serum, 100 IU/mL penicillin, and 100 μg/mL streptomycin at 37°C in a humidified 5% CO2/95% air incubator. Synthesis of new compounds is described in S1 File, and >95% purity of RA475, Up284 and its analogs were confirmed by NMR and MS. To assess drug cytotoxicity, cells were seeded at 2,500 cells/well (10,000 cells/well for MM lines) in 100 μL medium in 96-well plate as triplicates and after 24 h treated with compounds for a further 72 h. To assess cytotoxicity, the cells were incubated for 2 h at 37°C according to the manufacturer’s protocol with the Thiazolyl Blue Tetrazolium Bromide (20 μL/well of 5 mg/mL stock solution in water) (Sigma, M5655) and A570 measured using a Benchmark Plus microplate spectrophotometer (BIO-RAD). IC50 was estimated using Graphpad Prism 7 software.

MDA-MB-468 = assay: MTT cytotoxicity assay, MDA-MB-468; assay type: cell-based; conditions: Homo sapiens, MDA-MB-468, 72 h
Method: as §1

PEO4 = assay: MTT cytotoxicity assay, PEO4; assay type: cell-based; conditions: Homo sapiens, PEO4, 72 h
Method: as §1
We elected to focus on RA475 and expanded the analysis in a larger panel of cell lines including those from common cancer types and normal tissues. […] This panel included another pair of cell lines isolated from another ovarian cancer patient with drug-resistant disease (PEO4) and pre-treatment (PEO1), and both were similarly sensitive to RA475.

A549 = assay: MTT cytotoxicity assay, A549; assay type: cell-based; conditions: Homo sapiens, A549, 72 h
Method: as §1

BT549 = assay: MTT cytotoxicity assay, BT549; assay type: cell-based; conditions: Homo sapiens, BT-549, BT549, 72 h
Method: as §1

HepG2 = assay: MTT cytotoxicity assay, HepG2; assay type: cell-based; conditions: Homo sapiens, HepG2, 72 h
Method: as §1

HFF = assay: MTT cytotoxicity assay, HFF; assay type: cell-based; conditions: Homo sapiens, HFF (normal cells), 72 h
Method: as §1

[1] = system: high molecular weight polyubiquitinated proteins in OVCAR3 cells; assay: Anti-ubiquitin immunoblot, OVCAR3; assay type: cell-based, human; conditions: Up284 0.5 μM, bortezomib 0.25 μM, ixazomib 0.25 μM, RA475 0.5 or 1 μM
From the text: Cell lysate prepared in MPER (Pierce) from each sample was normalized by total protein concentration using the bicinchoninic acid assay and bovine serum albumin standards. Normalized samples were subjected to SDS-PAGE, transferred to PVDF membranes and analyzed by Western blot using antibodies specific to ubiquitin (P4D1, sc-8017, Santa Cruz), PARP (#9542, […]), actin (#66009, Protein Tech Group), Tubulin(#66031, Protein Tech Group), ADRM1/RPN13 (D9Z1U, #12019, Cell Signaling), USP14 (Cell Signal, # 8159), Annexin V (#559763, BD Pharmingen), and for secondary antibodies we utilized either horseradish peroxidase (HRP)-linked anti-mouse IgG or anti-rabbit IgG (GE Healthcare UK Ltd), HRP-linked streptavidin (N100, Thermo Fisher) at the recommended dilution (1:5000).
Accumulation of high molecular weight polyubiquitinated proteins (polyUb) is a classical phenomenon of proteasome function inhibition due to the stabilization of its substrate.
(§2) Fig 3 Impact of RA475 on proteasome function. […] Actin was used as loading control. […] C) 4T1 and HCC1806 cells stably expressing 4UbFL were treated with compounds at indicated doses for 4 h and imaged by IVIS200 after the addition of luciferin substrate (50 μL, 7mg/mL in PBS). D) Sub-confluent cultures of ES2 cells stably expressing 4UbFL were seeded at 10,000 cells/well in 96-well microtiter plates. At 18 h post transfection, cells were treated with compounds or vehicle (DMSO) at the doses indicated. After a 4 h incubation, the cells were lysed and the luciferase activity in each cell lysate was determined with a luciferase assay kit (Promega) according to the manufacturer’s instructions. Bioluminescence was measured by using a luminometer (Glomax Multidetection system, Promega) E) A patch was shaved of hair on one leg of CD-1 mice, and 10 μg 4UbFL plasmid in 20 μL of PBS was injected into the quadriceps femoralis muscle followed immediately by injection of the 2 Needle Array to 5 mm depth encompassing the injection site and square wave electroporation (ElectroSquarePorator 833, BTX-2 Needle array 5mm gap, Harvard apparatus) delivered as eight pulses at 106V for 20 ms with 200 ms intervals. One day post electroporation, mice were anesthetized with isoflurane, injected IP with luciferin (0.3 mg in 100 μL water) and optical imaging was performed to determine basal level luciferase expression. Images were acquired for 10 min with a Xenogen IVIS 200 (Caliper, Hopkinton, MA). Equally sized areas were analyzed using Living Image 2.20 software. Mice were imaged weekly during treatment. […]

[2] = system: 4UbFL expressed in leg muscle; assay: 4UbFL reporter in leg muscle of CD-1 mice; assay type: in vivo, mouse; conditions: for 4UbFL bioluminescence from leg muscle vs vehicle: single IP dose 40 mg/Kg, 4-96 h
Method: A patch of CD1 mouse leg was shaved of hair and 10 μg 4Ub-FL plasmid in 20 μL of PBS was injected into the quadriceps femoralis muscle followed immediately by injection of the 2 Needle Array to 5 mm depth encompassing the injection site and square wave EP (ElectroSquarePorator 833, BTX-2 Needle array 5mm gap, Harvard apparatus) delivered as eight pulses at 106 V for 20 ms with 200 ms intervals. One day post-EP, mice were anesthetized with isoflurane, injected IP with luciferin (0.3 mg in 100 μL water) and optical imaging was performed to determine basal level luciferase expression. Images were acquired for 10 min with a Xenogen IVIS 200 (Caliper, Hopkinton, MA). Equally sized areas were analyzed using Living Image 2.20 software.
as §2, with “treatment. Mice were randomized into three groups (n = 5) and treated IP once with Vehicle (25% (w/v) β-Hydroxypropylcyclodextrin in water, Sigma Aldrich) alone, RA475 (40 mg/Kg) or Up284 (40 mg/Kg) and mice were imaged again at 4 h, 24 h, 48 h, 72 h and 96 h later. F) Same as in E but RA475 (40mg/Kg) and ixazomib (10mg/Kg, recommended dose) were delivered orally. Thick line indicates median measurements.” for “treatment.”

| Compound | IC50 (TSH1) [nM] | IC50 (MDA-MB-468) [nM] | IC50 (PEO4) [nM] | IC50 (A549) [nM] | IC50 (BT549) [nM] | IC50 (HepG2) [nM] | IC50 (HFF) [nM] | forms of polyUb induced [1] | 4UbFL stabilization, fold over baseline ([2]; 40 mg/Kg IP) [fold] | 4UbFL bioluminescence from leg muscle vs vehicle [2] | stabilization of 4UbFL in muscle ([2]; single oral (PO) 40 mg/Kg dose, 40 mg/kg) |
| --- | --- | --- | --- | --- | --- | --- | --- | --- | --- | --- | --- |
| Cl.Cl.N#Cc1ccc(/C=C2/C(=O)/C(=C/c3ccc(C#N)cc3)C23CCN(C(=N)N)CC3)cc1 [RA475, 1,3-bis((E)-4-cyanobenzylidene)-2-oxo-7-azaspiro[3.5]nonane-7-carboximidamide dihydrochloride] | 114 | 292 | 260 | 219 | 229 | 241 | > 2500 | induced forms of polyUb that did not run into the gel | > 20 | rapidly increased the bioluminescence | much lower than seen for the single IV dose; also recorded: minimal stabilization |
| N#Cc1ccc(/C=C2/C(=O)/C(=C/c3ccc(C#N)cc3)C23CCNCC3)cc1 [Up284, reference compound] | 70 | 72 | 61 | 90 | 70 | 90 | > 2500 | induced forms of polyUb that did not run into the gel | – | much weaker effect | – |
